Assays:
Format in all cases: in vivo
[1] = tested on: Yellow Fever Mosquito (Aedes aegypti, AEDSAE); assay: Bioassay on Yellow Fever Mosquito (YFM) larvae, 96-well plate; conditions: about 1 day-old larvae, room temperature, 3 days, scored on mortality
Outline: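 Compound stocks at 4000 ppm in DMSO were diluted with 90:10 water/acetone, and 15 μL aliquots were dispensed into six replicate plates. About 1-day-old larvae in liver-powder water were added per well. Plates were covered and held at room temperature for 3 days before each well was scored for mortality.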

[2] = tested on: Cabbage Looper (Trichoplusia ni, TRIPNI); assay: Bioassay on Cabbage Looper (CL), 128-well diet tray assay; conditions: 168 h, 50 μg/cm^2 on artificial diet, second instar larvae, 25° C., five to seven days, average of eight wells, read-out: CL % Control (or Mortality) rating
Outline: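 Percent larval mortality, averaged across eight replicate wells, was scored after 5–7 days at 25 °C with a 14:10 photoperiod. Each well held 1 mL diet surface-treated at 50 μg/cm^2 with test molecule from a 90:10 acetone-water solution, then dried. Wells were infested with one to five second-instar cabbage loopers.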

[3] = tested on: Beet Armyworm (Spodoptera exigua, LAPHEG); assay: Bioassay on Beet Armyworm (BAW), 128-well diet tray assay; conditions: 168 h, 50 μg/cm^2 on artificial diet, second instar larvae, 25° C., five to seven days, average of eight wells, read-out: BAW % Control (or Mortality) rating
Outline: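 In a 128-well format, eight wells per compound received a surface dose of 50 μg/cm^2 on artificial diet. After drying, each well got one to five second instar larvae, held at 25° C. with 14:10 photoperiod. Mortality percentages after five to seven days were averaged.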

SMILES | YFM % Control (or Mortality) rating [1] | mortality at 50 µg/cm2 [2] | mortality at 50 µg/cm2 [3]
O=C(NCC(F)(F)F)c1cccc(NC(=O)[C@H]2[C@H](c3cc(Cl)cc(Cl)c3)C2(Cl)Cl)c1 (relative stereo) [F3, trans-3-(2,2-Dichloro-3-(3,5-dichlorophenyl)cyclopropane-1-carboxamido)-N-(2,2,2-trifluoroethyl)benzamide] | A (80-100) | 50 to 100% | 50 to 100%
O=C(NCC(F)(F)F)c1cc(NC(=O)[C@H]2[C@H](c3ccc(Br)c(F)c3)C2(Cl)Cl)ccc1Cl (relative stereo) [F113, 5-(trans-3-(4-Bromo-3-fluorophenyl)-2,2-dichlorocyclopropane-1-carboxamido)-2-chloro-N-(2,2,2-trifluoroethyl)benzamide] | A (80-100) | 50 to 100% | 50 to 100%
O=C(NCC(F)(F)F)c1cc(NC(=O)[C@H]2[C@H](c3cc(Cl)cc(Cl)c3)C2(Cl)Cl)c(Cl)cc1Cl (relative stereo) [F100, trans-2,4-Dichloro-5-(2,2-dichloro-3-(3,5-dichlorophenyl)cyclopropane-1-carboxamido)-N-(2,2,2-trifluoroethyl)benzamide] | A (80-100) | 0% | 50 to 100%
C[C@H](C[S+]([O-])CCC(F)(F)F)NC(=O)c1cc(NC(=O)C2C(c3cc(Cl)cc(Cl)c3)C2(Cl)Cl)ccc1Cl (stereo in doubt) [PF5, trans-2-Chloro-5-(2,2-dichloro-3-(3,5-dichlorophenyl)cyclopropane-1-carboxamido)-N-((2R)-1-((3,3,3-trifluoropropyl)sulfinyl)propan-2-yl)benzamide] | A (80-100) | 50 to 100% | 50 to 100%
CNC(=O)c1cc(NC(=O)[C@H]2[C@H](c3cc(Cl)cc(Cl)c3)C2(Cl)Cl)ccc1Cl (relative stereo) [F1, trans-2-chloro-5-(2,2-dichloro-3-(3,5-dichlorophenyl)cyclopropane-1-carboxamido)-N-methylbenzamide] | A (80-100) | 50 to 100% | 50 to 100%
C[C@H](C[S+]([O-])CC(F)(F)F)NC(=O)c1cc(NC(=O)C2C(c3cc(Cl)cc(Cl)c3)C2(Cl)Cl)ccc1Cl (stereo in doubt) [PF7, trans-2-Chloro-5-(2,2-dichloro-3-(3,5-dichlorophenyl)cyclopropane-1-carboxamido)-N-((2R)-1-((2,2,2-trifluoroethyl)sulfinyl)propan-2-yl)benzamide] | A (80-100) | 50 to 100% | 50 to 100%
O=C(NCCN1CCNC1=O)c1cc(NC(=O)[C@H]2[C@H](c3cc(Cl)cc(Cl)c3)C2(Cl)Cl)ccc1Cl (relative stereo) [F79, trans-2-Chloro-5-(2,2-dichloro-3-(3,5-dichlorophenyl)cyclopropane-1-carboxamido)-N-(2-(2-oxoimidazolidin-1-yl)ethyl)benzamide] | A (80-100) | 50 to 100% | 50 to 100%
O=C(NCC(F)(F)F)c1cc(NC(=O)[C@H]2[C@H](c3ccc(C(F)F)cc3)C2(Cl)Cl)ccc1Cl (relative stereo) [F135, 2-Chloro-5-(trans-2,2-dichloro-3-(4-(difluoromethyl)phenyl)cyclopropane-1-carboxamido)-N-(2,2,2-trifluoroethyl)benzamide] | A (80-100) | 50 to 100% | 0%
O=C(NCC(F)(F)F)c1cc(NC(=O)[C@H]2[C@H](c3ccc(Br)c(Br)c3)C2(Cl)Cl)ccc1Cl (relative stereo) [F111, 2-Chloro-5-(trans-2,2-dichloro-3-(3,4-dibromophenyl)cyclopropane-1-carboxamido)-N-(2,2,2-trifluoroethyl)benzamide] | A (80-100) | 50 to 100% | 50 to 100%
CCN(C)C(=O)c1cc(NC(=O)[C@H]2[C@H](c3cc(Cl)cc(Cl)c3)C2(Cl)Cl)ccc1Cl (relative stereo) [F63, trans-2-Chloro-5-(2,2-dichloro-3-(3,5-dichlorophenyl)cyclopropane-1-carboxamido)-N-ethyl-N-methylbenzamide] | D (No activity noticed in this bioassay) | 50 to 100% | 50 to 100%
O=C(NCCc1csc2ccccc12)c1cc(NC(=O)[C@H]2[C@H](c3cc(Cl)cc(Cl)c3)C2(Cl)Cl)ccc1Cl (relative stereo) [PF15, trans-N-(2-(Benzo[b]thiophen-3-yl)ethyl)-2-chloro-5-(2,2-dichloro-3-(3,5-dichlorophenyl)cyclopropane-1-carboxamido)benzamide] | A (80-100) | 50 to 100% | 50 to 100%
CN(CCC(F)(F)F)C(=O)c1cc(NC(=O)[C@H]2[C@H](c3cc(Cl)cc(Cl)c3)C2(Cl)Cl)ccc1Cl (relative stereo) [F64, trans-2-Chloro-5-(2,2-dichloro-3-(3,5-dichlorophenyl)cyclopropane-1-carboxamido)-N-methyl-N-(3,3,3-trifluoropropyl)benzamide] | D (No activity noticed in this bioassay) | 50 to 100% | 50 to 100%
O=C(NCCF)c1cc(NC(=O)[C@H]2[C@H](c3cc(Cl)cc(Cl)c3)C2(Cl)Cl)c(Cl)cc1Cl (relative stereo) [F99, trans-2,4-Dichloro-5-(2,2-dichloro-3-(3,5-dichlorophenyl)cyclopropane-1-carboxamido)-N-(2-fluoroethyl)benzamide] | A (80-100) | 50 to 100% | 50 to 100%
O=C(NCCF)c1cc(NC(=O)[C@H]2[C@H](c3ccc(F)c(Cl)c3)C2(Cl)Cl)ccc1Cl (relative stereo) [F104, trans-2-Chloro-5-(2,2-dichloro-3-(3-chloro-4-fluorophenyl)cyclopropane-1-carboxamido)-N-(2-fluoroethyl)benzamide] | A (80-100) | 50 to 100% | 50 to 100%
O=C(NCC(F)(F)F)c1cc(NC(=O)[C@H]2[C@H](c3ccc(C(F)F)c(F)c3)C2(Cl)Cl)ccc1Cl (relative stereo) [F133, 2-Chloro-5-(trans-2,2-dichloro-3-(4-(difluoromethyl)-3-fluorophenyl)cyclopropane-1-carboxamido)-N-(2,2,2-trifluoroethyl)benzamide] | A (80-100) | 50 to 100% | 50 to 100%
CN(CC1CC1)C(=O)c1cc(NC(=O)[C@H]2[C@H](c3cc(Cl)cc(Cl)c3)C2(Cl)Cl)ccc1Cl (relative stereo) [F69, trans-2-Chloro-N-(cyclopropylmethyl)-5-(2,2-dichloro-3-(3,5-dichlorophenyl)cyclopropane-1-carboxamido)-N-methylbenzamide] | D (No activity noticed in this bioassay) | 50 to 100% | 50 to 100%
O=C(NCCC(F)(F)F)c1cc(NC(=O)[C@H]2[C@H](c3cc(Cl)cc(Cl)c3)C2(Cl)Cl)cc(Cl)c1Cl (relative stereo) [F94, trans-2,3-Dichloro-5-(2,2-dichloro-3-(3,5-dichlorophenyl)cyclopropane-1-carboxamido)-N-(3,3,3-trifluoropropyl)benzamide] | A (80-100) | 50 to 100% | 50 to 100%
O=C(NCc1ccc(-n2cncn2)cc1)c1cc(NC(=O)[C@H]2[C@H](c3cc(Cl)cc(Cl)c3)C2(Cl)Cl)ccc1Cl (relative stereo) [PF11, trans-N-(4-(1H-1,2,4-Triazol-1-yl)benzyl)-2-chloro-5-(2,2-dichloro-3-(3,5-dichlorophenyl)cyclopropane-1-carboxamido)benzamide] | A (80-100) | 50 to 100% | 50 to 100%
O=C(NCC(F)(F)F)c1cc(NC(=O)[C@H]2[C@H](c3ccc(Cl)c(C(F)F)c3)C2(Cl)Cl)ccc1Cl (relative stereo) [F129, 2-Chloro-5-(trans-2,2-dichloro-3-(4-chloro-3-(difluoromethyl)phenyl)cyclopropane-1-carboxamido)-N-(2,2,2-trifluoroethyl)benzamide] | A (80-100) | 50 to 100% | 50 to 100%
O=C(NCCCCl)c1cc(NC(=O)[C@H]2[C@H](c3cc(Cl)cc(Cl)c3)C2(Cl)Cl)ccc1Cl (relative stereo) [F57, trans-2-Chloro-N-(3-chloropropyl)-5-(2,2-dichloro-3-(3,5-dichlorophenyl)cyclopropane-1-carboxamido)benzamide] | D (No activity noticed in this bioassay) | 50 to 100% | 50 to 100%
CCCN(C)C(=O)c1cc(NC(=O)[C@H]2[C@H](c3cc(Cl)cc(Cl)c3)C2(Cl)Cl)ccc1Cl (relative stereo) [F62, trans-2-Chloro-5-(2,2-dichloro-3-(3,5-dichlorophenyl)cyclopropane-1-carboxamido)-N-methyl-N-propylbenzamide] | D (No activity noticed in this bioassay) | 50 to 100% | 50 to 100%

From patent US9795140B2, “Molecules having pesticidal utility, and intermediates, compositions, and processes, related thereto” (priority 2015, dated 2017)
